Measured values reported in patent publication US11331314B2, “Amine substituted triazole derivatives and uses thereof” (Bayer Pharma Aktiengesellschaft, priority 2017, dated 2022).

How the values were obtained:
[1] = target: human V1a receptor (Homo sapiens, UniProt P37288); test: Cellular in vitro assay for determining vasopressin receptor activity, V1a receptor cell line (photoprotein luminescence); format: cell-based; settings: for IC50: CHO cell line transfected with the human V1a receptor, agonist [Arg8]-vasopressin at EC50 concentration, read-out: IC50 hV1a; for ratio IC50 hV2/hV1a: selectivity ratio of the cellular IC50 values
human V1a receptor, sequence (P37288 whole entry): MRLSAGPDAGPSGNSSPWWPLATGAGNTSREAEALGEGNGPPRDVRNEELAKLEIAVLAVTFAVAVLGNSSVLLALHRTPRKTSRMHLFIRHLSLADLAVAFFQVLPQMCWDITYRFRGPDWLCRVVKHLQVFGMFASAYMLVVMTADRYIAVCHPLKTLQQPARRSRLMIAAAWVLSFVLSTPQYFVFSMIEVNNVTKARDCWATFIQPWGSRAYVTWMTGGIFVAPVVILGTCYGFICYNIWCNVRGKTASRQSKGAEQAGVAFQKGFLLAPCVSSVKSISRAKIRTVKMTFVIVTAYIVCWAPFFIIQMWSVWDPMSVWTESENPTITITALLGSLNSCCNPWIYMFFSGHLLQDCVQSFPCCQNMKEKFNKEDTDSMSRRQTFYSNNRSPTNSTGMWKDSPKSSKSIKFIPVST
Description: (§1) B-1. Cellular In Vitro Assay for Determining Vasopressin Receptor Activity
(§2) The identification of agonists and antagonists of the V1a and V2 vasopressin receptors from humans, rats and dogs as well as the quantification of the activity of the compounds of the invention is carried out using recombinant cell lines. These cell lines originally derive from a hamster's ovary epithelial cell (Chinese Hamster Ovary, CHO K1, ATCC: American Type Culture Collection, Manassas, Va. 20108, USA). The test cell lines constitutively express the human, rat or dog V1a or V2 receptors. In case of the Gαq-coupled V1a receptors, cells are also stably transfected with a modified form of the calcium-sensitive photoproteins aequorin (human and rat V1a) or obelin (dog V1a), which, after reconstitution with the cofactor coelenterazine, emit light when there are increases in free calcium concentrations [Rizzuto R, Simpson A W, Brini M, Pozzan T, Nature 358, 325-327 (1992); Illarionov B A, Bondar V S, Illarionova V A, Vysotski E S, Gene 153 (2), 273-274 (1995)]. The resulting vasopressin receptor cells react to stimulation of the recombinantly expressed V1a receptors by intracellular release of calcium ions, which can be quantified by the resulting photoprotein luminescence. The Gs-coupled V2 receptors are stably transfected into cell lines expressing the gene for firefly luciferase under control of a CRE-responsible promoter. Activation of V2 receptors induces the activation of the CRE-responsive promoter via cAMP increase, thereby inducing the expression of firefly luciferase. The light emitted by photoproteins of V1a cell lines as well as the light emitted by firefly luciferase of V2 cell lines corresponds to the activation or inhibition of the respective vasopressin receptor. The bioluminescence of the cell lines is detected using a suitable luminometer [Milligan G, Marshall F, Rees S, Trends in Pharmacological Sciences 17, 235-237 (1996)].
Vasopressin V1a Receptor Cell Lines:
On the day before the assay, the cells are plated out in culture medium (DMEM/F12, 2% FCS, 2 mM glutamine, 10 mM HEPES, 5 μg/ml coelenterazine) in 384-well microtiter plates and kept in a cell incubator (96% humidity, 5% v/v CO2, 37° C.). On the day of the assay, test compounds in various concentrations are placed for 10 minutes in the wells of the microtiter plate before the agonist [Arg^8]-vasopressin at EC50 concentration is added. The resulting light signal is measured immediately in a luminometer.
(§3) Table 1A below lists individual IC50 values for the compounds of the invention (including racemic mixtures as well as separated enantiomers) that were obtained from cell lines transfected with the human V1a or V2 receptor: […]

[2] = target: T1, human V2 receptor (Homo sapiens, UniProt P30518); test: Cellular in vitro assay for determining vasopressin receptor activity, V2 receptor cell line (CRE-luciferase); format: cell-based; settings: CHO cell line transfected with the human V2 receptor; agonist [Arg8]-vasopressin at EC50 concentration; read-out: IC50 hV2
T1 construct: expressed in transfected cells; host or cells: CHO K1 (ATCC) expressing firefly luciferase under a CRE-responsive promoter
T1 sequence (P30518 whole entry): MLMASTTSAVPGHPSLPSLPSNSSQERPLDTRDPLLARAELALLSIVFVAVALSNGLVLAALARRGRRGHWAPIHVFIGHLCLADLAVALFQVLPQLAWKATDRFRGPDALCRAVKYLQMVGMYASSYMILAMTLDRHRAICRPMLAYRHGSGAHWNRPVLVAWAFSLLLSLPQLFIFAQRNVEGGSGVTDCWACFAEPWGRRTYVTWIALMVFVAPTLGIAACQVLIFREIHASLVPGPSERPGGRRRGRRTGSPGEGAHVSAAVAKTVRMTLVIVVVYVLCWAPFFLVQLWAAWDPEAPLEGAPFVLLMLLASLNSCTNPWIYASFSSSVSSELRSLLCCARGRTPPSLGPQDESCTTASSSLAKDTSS
Description: as §1, §2
Vasopressin V2 Receptor Cell Lines:
On the day before the assay, the cells are plated out in culture medium (DMEM/F12, 2% FCS, 2 mM glutamine, 10 mM HEPES) in 384-well microtiter plates and kept in a cell incubator (96% humidity, 5% v/v CO2, 37° C.). On the day of the assay, test compounds in various concentrations and the agonist [Arg^8]-vasopressin at EC50 concentration are added together to the wells, and plates are incubated for 3 hours in a cell incubator. Upon addition of the cell lysis reagent Triton™ and the substrate luciferin, luminescence of firefly luciferase is measured in a luminometer.
as §3

Structure (SMILES) | IC50 [1] [nM] | ratio IC50 hV2/hV1a [1] | IC50 [2] [nM]
CC(C)(N)CNc1nc(Cn2nc(-c3ccc(Cl)cc3)n(C[C@H](O)C(F)(F)F)c2=O)nn1-c1ncccc1Cl [Example 95, 2-({5-[(2-Amino-2-methylpropyl)amino]-1-(3-chloropyridin-2-yl)-1H-1,2,4-triazol-3-yl}methyl)-5-(4-chlorophenyl)-4-[(2S)-3,3,3-trifluoro-2-hydroxypropyl]-2,4-dihydro-3H-1,2,4-triazol-3-one] | 0.86 | 845.9 | 727
CC(C)(N)CNc1nc(Cn2nc(-c3ccc(Cl)cc3)n(C[C@H](O)C(F)(F)F)c2=O)nn1-c1ccccc1F [Example 91, 2-({5-[(2-Amino-2-methylpropyl)amino]-1-(2-fluorophenyl)-1H-1,2,4-triazol-3-yl}methyl)-5-(4-chlorophenyl)-4-[(2S)-3,3,3-trifluoro-2-hydroxypropyl]-2,4-dihydro-3H-1,2,4-triazol-3-one] | 1.15 | 91.7 | 105
O=C1CN(c2nc(Cn3nc(-c4ccc(Cl)cc4)n(C[C@H](O)C(F)(F)F)c3=O)nn2-c2ccccc2Cl)CCN1 [Example 48, 4-[1-(2-Chlorophenyl)-3-({3-(4-chlorophenyl)-5-oxo-4-[(2S)-3,3,3-trifluoro-2-hydroxypropyl]-4,5-dihydro-1H-1,2,4-triazol-1-yl}methyl)-1H-1,2,4-triazol-5-yl]piperazin-2-one] | 0.64 | 16.3 | 10.4
O=C1CC[C@H](CNc2nc(Cn3nc(-c4ccc(Cl)cc4)n(C[C@H](O)C(F)(F)F)c3=O)nn2CCC(F)(F)F)N1 [Example 101, 5-(4-Chlorophenyl)-2-{[5-({[(2R)-5-oxopyrrolidin-2-yl]methyl}amino)-1-(3,3,3-trifluoropropyl)-1H-1,2,4-triazol-3-yl]methyl}-4-[(2S)-3,3,3-trifluoro-2-hydroxypropyl]-2,4-dihydro-3H-1,2,4-triazol-3-one] | 29.5 | 17.3 | 510
O=C1CCC(Nc2nc(Cn3nc(-c4ccc(Cl)cc4)n(C[C@H](O)C(F)(F)F)c3=O)nn2-c2ccccc2Cl)CN1 (single isomer, unassigned) [Example 61] | 1.35 | 7.4 | 10.1
O=c1n(Cc2nc(N3CC4(COC4)C3)n(-c3ccccc3Cl)n2)nc(-c2ccc(Cl)cc2)n1C[C@H](O)C(F)(F)F [Example 86, 5-(4-Chlorophenyl)-2-{[1-(2-chlorophenyl)-5-(2-oxa-6-azaspiro[3.3]hept-6-yl)-1H-1,2,4-triazol-3-yl]methyl}-4-[(2S)-3,3,3-trifluoro-2-hydroxypropyl]-2,4-dihydro-3H-1,2,4-triazol-3-one] | 0.98 | 6.8 | 6.66
O=c1n(Cc2nc(N3CCOCC3)n(-c3cccc(F)c3)n2)nc(-c2ccc(Cl)cc2)n1C[C@H](O)C(F)(F)F [Example 119, 5-(4-Chlorophenyl)-2-{[1-(3-fluorophenyl)-5-(morpholin-4-yl)-1H-1,2,4-triazol-3-yl]methyl}-4-[(2S)-3,3,3-trifluoro-2-hydroxypropyl]-2,4-dihydro-3H-1,2,4-triazol-3-one] | 7.79 | 2.2 | 17.1
O=c1n(Cc2nc(N3CCS(=O)(=O)CC3)n(-c3ccccc3Cl)n2)nc(-c2ccc(Cl)cc2)n1C[C@H](O)C(F)(F)F [Example 55, 5-(4-Chlorophenyl)-2-{[1-(2-chlorophenyl)-5-(1,1-dioxidothiomorpholin-4-yl)-1H-1,2,4-triazol-3-yl]methyl}-4-[(2S)-3,3,3-trifluoro-2-hydroxypropyl]-2,4-dihydro-3H-1,2,4-triazol-3-one] | 0.39 | 67.1 | 26
O=C1CCC(Nc2nc(Cn3nc(-c4ccc(Cl)cc4)n(C[C@H](O)C(F)(F)F)c3=O)nn2-c2ccccc2Cl)CN1 (single isomer, unassigned) [Example 62] | 1.3 | 7.3 | 9.45
CC(C)(C)OC(=O)N1CCC(O)(CNc2nc(Cn3nc(-c4ccc(Cl)cc4)n(C[C@H](O)C(F)(F)F)c3=O)nn2-c2ccccc2Cl)CC1 [Example 21, tert-Butyl 4-({[1-(2-chlorophenyl)-3-({3-(4-chlorophenyl)-5-oxo-4-[(2S)-3,3,3-trifluoro-2-hydroxypropyl]-4,5-dihydro-1H-1,2,4-triazol-1-yl}methyl)-1H-1,2,4-triazol-5-yl]amino}methyl)-4-hydroxypiperidine-1-carboxylate] | 2 | 17.8 | 35.5
O=C1CCCN1CCNc1nc(Cn2nc(-c3ccc(Cl)cc3)n(C[C@H](O)C(F)(F)F)c2=O)nn1-c1ccccc1Cl [Example 45, 5-(4-Chlorophenyl)-2-{[1-(2-chlorophenyl)-5-{[2-(2-oxopyrrolidin-1-yl)ethyl]amino}-1H-1,2,4-triazol-3-yl]methyl}-4-[(2S)-3,3,3-trifluoro-2-hydroxypropyl]-2,4-dihydro-3H-1,2,4-triazol-3-one] | 2.45 | 5.3 | 13

Results, then the molecule that gave them:

IC50 [1] [nM] | ratio IC50 hV2/hV1a [1] | IC50 [2] [nM] | Structure (SMILES)
0.35 | 71.2 | 24.8 | CC(C)(N)CNc1nc(Cn2nc(-c3ccc(Cl)cc3)n(C[C@H](O)C(F)(F)F)c2=O)nn1-c1ccccc1Cl [Example 32, 2-({5-[(2-Amino-2-methylpropyl)amino]-1-(2-chlorophenyl)-1H-1,2,4-triazol-3-yl}methyl)-5-(4-chlorophenyl)-4-[(2S)-3,3,3-trifluoro-2-hydroxypropyl]-2,4-dihydro-3H-1,2,4-triazol-3-one]
0.46 | 19.0 | 8.75 | O=c1n(Cc2nc(N3CCC(F)(F)CC3)n(-c3ccccc3Cl)n2)nc(-c2ccc(Cl)cc2)n1C[C@H](O)C(F)(F)F [Example 34, 5-(4-Chlorophenyl)-2-{[1-(2-chlorophenyl)-5-(4,4-difluoropiperidin-1-yl)-1H-1,2,4-triazol-3-yl]methyl}-4-[(2S)-3,3,3-trifluoro-2-hydroxypropyl]-2,4-dihydro-3H-1,2,4-triazol-3-one]
0.82 | 2.1 | 1.75 | O=c1n(Cc2nc(N3CC(O)(C(F)(F)F)C3)n(-c3ccccc3Cl)n2)nc(-c2ccc(Cl)cc2)n1C[C@H](O)C(F)(F)F [Example 36, 5-(4-Chlorophenyl)-2-({1-(2-chlorophenyl)-5-[3-hydroxy-3-(trifluoromethyl)azetidin-1-yl]-1H-1,2,4-triazol-3-yl}methyl)-4-[(2S)-3,3,3-trifluoro-2-hydroxypropyl]-2,4-dihydro-3H-1,2,4-triazol-3-one]
0.38 | 7.2 | 2.7 | CC1(O)CCN(c2nc(Cn3nc(-c4ccc(Cl)cc4)n(C[C@H](O)C(F)(F)F)c3=O)nn2-c2ccccc2Cl)C1 (single isomer, unassigned) [Example 30]
0.42 | 10.5 | 4.4 | O=c1n(Cc2nc(N3CCC(O)C3)n(-c3ccccc3Cl)n2)nc(-c2ccc(Cl)cc2)n1C[C@H](O)C(F)(F)F (mixture of isomers) [Example 43, 5-(4-Chlorophenyl)-2-({1-(2-chlorophenyl)-5-[3-hydroxypyrrolidin-1-yl]-1H-1,2,4-triazol-3-yl}methyl)-4-[(2S)-3,3,3-trifluoro-2-hydroxypropyl]-2,4-dihydro-3H-1,2,4-triazol-3-one]
0.22 | 5.2 | 1.12 | NC(CNc1nc(Cn2nc(-c3ccc(Cl)cc3)n(C[C@H](O)C(F)(F)F)c2=O)nn1-c1ccccc1Cl)C(F)(F)F (single isomer, unassigned) [Example 7]
